Data on 2 molecules can be found in patent publication US20020188323A1, “Methods, systems and devices for in vivo electrochemical production of therapeutic agents” (Remon Medical Technologies Ltd., priority 2001, published 2002).

SMILES strings stand for the structures.

For series [1], the system named is cells. Conditions: cited from earlier work.
Series [2] deals with human endothelial cells. Description: Effect of hypochlorite on human endothelial cells (Vissers et al.). The series is classed as cell-based. The source says: Hypochlorite and hydrogen peroxide are strong oxidants and are extensively used as antiseptic agents. Hydrogen peroxide is routinely used as an antiseptic agent in cases of external wounds. Hypochlorite is used as an antiseptic agent during, for example, dental root treatment. Both hypochlorous acid and hydrogen peroxide are well-known disinfectants. Hypochlorite is widely used for treatment of drinking water and as a bactericide. Both hypochlorite and hydrogen peroxide have cytotoxic activity at concentrations of several ppm. Vissers et al. tested the effect of hypochlorite on cells. They noticed a necrosis threshold of 20-40 nmole HClO per 1.2×10^5 cells, which translates approximately into 2 ppm concentration. Transient growth (proliferation) inhibition occurred at lower concentrations of 5 nmole, or about 0.2-0.3 ppm. See, “Hypochlorous acid causes caspase activation and apoptosis or growth arrest in human endothelial cells”, by Margret C. M. Vissers, Juliet M. Pullar and Mark B. Hampton, Biochem. J. (1999) vol. 344, pp. 443-449. Schraufenstatter et al. discuss the effect of hypochlorite on P388D1 murine macrophage-like tumor cells in mice. They show cell damage at 0.5-1 ppm hypochlorite and cell death from about 4 ppm hypochlorite and up. […]

Series [3] in a line: Dissociation of HClO. The series is classed as physicochemical. Conditions: −log Ka. The text has this:
The dissociation constant of HClO or, in other words, the equilibrium constant of the reaction HClO→H^++ClO^−[6] is 3.7×10^−8.
Thus, the pKa of the reaction (i.e., −logka) equals 7.4. It is well known that when the pH of a solution equals the pKa of an acid dissolved therein, at all times, half of the acid molecules are dissociated. Since the blood pH value equals 7.4 half of the HClO is dissociated to H^+ and ClO^−.

Series [4] relates to human endothelial cells. Conditions: cited from earlier work.
The subject of series [5] is P388D1 murine macrophage-like tumor cells. Conditions: cited from earlier work.
Series [6] deals with viruses and bacteria. Conditions: cited from earlier work.

As for `OO` [hydrogen peroxide], the “concentration with cytotoxic activity” value in series [1] is recorded as “several”.
Turning to `OCl` [hypochlorite, hypochlorous acid], the “transient growth (proliferation) inhibition as concentration” value in series [2] (equivalent of 5 nmole) is on record as 0.2-0.3 ppm. For the same molecule, the “necrosis threshold as concentration” value in series [2] (translated from nmole per 1.2×10^5 cells) is approximately 2 ppm. Further, the pKa in series [3] came to 7.4. Also, in series [4], the necrosis threshold is listed as 20-40 nmole HClO per 1.2×10^5 cells. Further, the “transient growth (proliferation) inhibition” value in series [4] (lower concentrations than necrosis) was 5 nmol. For the same molecule, in series [5], the “concentration causing cell damage” value was 0.5-1 ppm and the “concentration causing cell death” value is listed as not below 4 ppm. Also, the “concentration with cytotoxic activity” value in series [1] is reported as “several”. Also, the “level required to kill all viruses and bacteria” value in series [6] is 40 ppm.
